SMILES strings stand for the structures.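 Protocol summary: plate cells (96-well), add compound at 5 concentrations, incubate 48 h, interpolate endpoints linearly. Abbreviation: GI50, concentration required for 50% inhibition of growth.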 Active and inactive are the calls of the source. No stated cut-off is given here; in the data, active = GI50 up to about 1.1 µM and inactive = higher.

Test systems include OVCAR-5; HCT-116; CCRF-CEM; HT-29; SW-620; RPMI-8226; A549; NCI-H226; SK-MEL-28; K562; HL-60; SK-MEL-5; OVCAR-4; KM12; UO-31; HOP-62; ACHN; SK-MEL-2; SF-539; NCI-H522.
Holding throughout (assay): growth of human tumour cells (NCI), 48 h

In the case of `Nc1nc(Cl)cc(NCCCCO)n1`, the GI50 in the assay with OVCAR-5, in the assay with HCT-116, in the assay with CCRF-CEM, in the assay with HT-29, in the assay on SW-620 and with RPMI-8226 was > 100 µM (inactive) in each case. Also, the GI50 in the assay with A549, with NCI-H226, in the assay with SK-MEL-28, in the assay on K562, with HL-60 and with SK-MEL-5 was > 100 µM (inactive) in each case. For the same compound, the GI50 was > 100 µM (inactive) with OVCAR-4; > 100 µM (inactive) in the assay with KM12; > 100 µM (inactive) in the assay with UO-31; > 10 µM (inactive) in the assay with HOP-62; > 100 µM (inactive) with ACHN; > 100 µM (inactive) in the assay with SK-MEL-2. For the same compound, the GI50 in the assay with SF-539 was > 100 µM (inactive).

Consider `Nc1nc(SCCc2ccccc2)nc2nc3c(c(-c4ccccc4)c12)CCCC3`, for which the GI50 was > 10 µM (inactive) with HCT-116; > 100 µM (inactive) in the assay with CCRF-CEM; > 100 µM (inactive) in the assay on HT-29; > 100 µM (inactive) with SW-620; > 100 µM (inactive) with RPMI-8226; > 100 µM (inactive) in the assay on A549. The GI50 is > 100 µM (inactive) with SK-MEL-28; > 100 µM (inactive) in the assay on K562; > 100 µM (inactive) in the assay on HL-60; > 10 µM (inactive) in the assay on SK-MEL-5; 40.9 µM (inactive) in the assay with OVCAR-4; > 100 µM (inactive) in the assay with KM12. For the same compound, the GI50 with UO-31 is > 100 µM (inactive); with HOP-62 it was 66.1 µM (inactive); in the assay with ACHN, > 100 µM (inactive); with SF-539, 0.706 µM (active).

With `COC(C[C@H]1CCCC[C@]1(O)/C(=C\CO[Si](C(C)C)(C(C)C)C(C)C)Sc1ccccc1)OC`, the GI50 in the assay on OVCAR-5 is 38.4 µM (inactive); with HCT-116, 22.5 µM (inactive); with CCRF-CEM, 27 µM (inactive); in the assay with NCI-H522, 15.8 µM (inactive); in the assay with HT-29, 46.1 µM (inactive); in the assay with RPMI-8226 it was 15.5 µM (inactive). Further, the GI50 is 28.6 µM (inactive) with A549; 23.2 µM (inactive) with NCI-H226; 50.6 µM (inactive) with SK-MEL-28; 31.3 µM (inactive) in the assay with K562; 38.2 µM (inactive) with HL-60; 30.3 µM (inactive) in the assay with SK-MEL-5. Besides, the GI50 was 39.2 µM (inactive) in the assay with OVCAR-4; 41.3 µM (inactive) in the assay with KM12; 42.2 µM (inactive) in the assay on UO-31; 50 µM (inactive) in the assay with HOP-62; > 100 µM (inactive) in the assay on ACHN; 22.7 µM (inactive) in the assay on SK-MEL-2.

Turning to `C[C@@H](O)C(=O)N1[C@@H]2CC3CC[C@]2(CS1(=O)=O)C3(C)C`, the GI50 with OVCAR-5 is > 100 µM (inactive); in the assay on HCT-116 it was 67.8 µM (inactive); in the assay with CCRF-CEM, 24.2 µM (inactive); with HT-29, > 100 µM (inactive); in the assay with SW-620 it was 28.1 µM (inactive); in the assay with RPMI-8226, 39.7 µM (inactive). Also, the GI50 with A549 is 95.1 µM (inactive); in the assay on NCI-H226, 23.2 µM (inactive); in the assay with SK-MEL-28, 76.2 µM (inactive); with K562, 68.1 µM (inactive); with HL-60 it was 28.9 µM (inactive); with SK-MEL-5 it was 49.2 µM (inactive). The GI50 in the assay on OVCAR-4 is 85.9 µM (inactive); with KM12, 82.2 µM (inactive); with UO-31, > 100 µM (inactive); with HOP-62, > 100 µM (inactive); in the assay with ACHN, 64.1 µM (inactive); in the assay on SK-MEL-2, > 100 µM (inactive). Further, the GI50 with SF-539 is 48.9 µM (inactive).

`CCOC(=O)CC1(c2cccc3ccccc23)OC(=O)c2ccccc21` (centres undefined): the GI50 with OVCAR-5 is > 100 µM (inactive); in the assay with CCRF-CEM it was 43.1 µM (inactive); in the assay on NCI-H522, 24.1 µM (inactive); with HT-29 it was 49.8 µM (inactive); in the assay on SW-620, 79.4 µM (inactive); with RPMI-8226 it was 23.7 µM (inactive). Besides, the GI50 was 41 µM (inactive) in the assay on A549; 67 µM (inactive) in the assay with NCI-H226; 39.9 µM (inactive) in the assay with SK-MEL-28; 37.9 µM (inactive) with K562; 22.1 µM (inactive) in the assay on HL-60; 21.3 µM (inactive) with SK-MEL-5. For the same compound, the GI50 was 40.4 µM (inactive) with OVCAR-4; 40.5 µM (inactive) in the assay with KM12; 23.9 µM (inactive) in the assay on UO-31; 30.3 µM (inactive) with ACHN; 32.1 µM (inactive) in the assay with SK-MEL-2.

For the compound `CCC1NC(/N=N/c2ccc([N+](=O)[O-])cc2)(P(=O)(OC(C)C)OC(C)C)OC1=O` (centres undefined), the GI50 with OVCAR-5, with HCT-116, with CCRF-CEM, in the assay on NCI-H522, in the assay with HT-29 and in the assay with SW-620 was > 100 µM (inactive) in each case. Besides, the GI50 in the assay on RPMI-8226, with A549, with SK-MEL-28, in the assay with K562, in the assay with HL-60 and in the assay on SK-MEL-5 was > 100 µM (inactive) in each case. For the same compound, the GI50 with OVCAR-4, in the assay on KM12, with UO-31, in the assay with HOP-62, in the assay with ACHN and in the assay with SK-MEL-2 was > 100 µM (inactive) each time. For the same compound, the GI50 with SF-539 is > 100 µM (inactive).

For the compound `C/C(=C\c1ccccc1)n1c(=O)cc(C)n1C`, the GI50 with OVCAR-5, in the assay on HCT-116, in the assay on CCRF-CEM, in the assay on HT-29, in the assay with SW-620 and in the assay with RPMI-8226 was > 100 µM (inactive) each time. Also, the GI50 in the assay on A549, in the assay on NCI-H226, in the assay on SK-MEL-28, in the assay with K562, in the assay on SK-MEL-5 and in the assay with OVCAR-4 was > 100 µM (inactive) in each case. For the same compound, the GI50 in the assay on KM12, with UO-31, in the assay on HOP-62, with ACHN, in the assay on SK-MEL-2 and in the assay on SF-539 was > 100 µM (inactive) throughout.

For `Cc1cc([N+](=O)[O-])ccc1/N=N/C(=O)NNc1ccc([N+](=O)[O-])cc1C`, the GI50 is 17.1 µM (inactive) with OVCAR-5; 11.2 µM (inactive) in the assay on HCT-116; 20.1 µM (inactive) in the assay with CCRF-CEM; 25 µM (inactive) in the assay on NCI-H522; 27 µM (inactive) in the assay with HT-29; 16.7 µM (inactive) in the assay with SW-620. The GI50 in the assay with RPMI-8226 is 21.3 µM (inactive); in the assay with A549 it was 15.8 µM (inactive); in the assay with NCI-H226, 15.3 µM (inactive); in the assay with SK-MEL-28, 16.4 µM (inactive); in the assay on K562 it was 19.5 µM (inactive); with HL-60 it was 20 µM (inactive). For the same compound, the GI50 with SK-MEL-5 was 13.6 µM (inactive); in the assay on OVCAR-4, 14.1 µM (inactive); in the assay on UO-31, 11.8 µM (inactive); in the assay with HOP-62 it was 13.7 µM (inactive); in the assay on ACHN, 15.8 µM (inactive); with SK-MEL-2, 21 µM (inactive).

For `NCCNCc1c2ccccc2c(CNCCN)c2ccccc12`, the GI50 was 27.4 µM (inactive) in the assay on OVCAR-5; 5.18 µM (inactive) in the assay on HCT-116; 15.4 µM (inactive) in the assay with CCRF-CEM; 8.13 µM (inactive) in the assay with NCI-H522; 6.21 µM (inactive) with HT-29; 11.1 µM (inactive) with SW-620. The GI50 in the assay with A549 was 12.1 µM (inactive); in the assay with SK-MEL-28, > 10 µM (inactive); in the assay with K562 it was 7.59 µM (inactive); in the assay with HL-60, 20.4 µM (inactive); in the assay on SK-MEL-5, 26.4 µM (inactive); in the assay on OVCAR-4 it was > 10 µM (inactive). In addition, the GI50 in the assay with KM12 is 15.3 µM (inactive); in the assay with UO-31 it was 49.4 µM (inactive); in the assay on HOP-62 it was 24.3 µM (inactive); in the assay on ACHN it was 34.8 µM (inactive); with SK-MEL-2 it was 14.5 µM (inactive); in the assay on SF-539, 12.2 µM (inactive).

Consider `CC(C)(C)OC(=O)/C=C/C(=O)O/C=C/[N+](=O)[O-]`, for which the GI50 with OVCAR-5, in the assay on HCT-116, in the assay on CCRF-CEM, in the assay with NCI-H522, in the assay on HT-29 and in the assay with SW-620 was > 100 µM (inactive) throughout. Also, the GI50 is > 100 µM (inactive) in the assay with RPMI-8226; > 100 µM (inactive) in the assay on A549; > 100 µM (inactive) with NCI-H226; 14.4 µM (inactive) in the assay on K562; > 100 µM (inactive) in the assay with SK-MEL-5; > 100 µM (inactive) in the assay on KM12. Moreover, the GI50 in the assay on UO-31, with HOP-62, in the assay with ACHN and in the assay with SF-539 was > 100 µM (inactive) in each case.

On to `O=S(O)CCCCCSSc1ccccc1`, for which the GI50 in the assay with OVCAR-5 was > 100 µM (inactive); with HCT-116 it was 24.3 µM (inactive); in the assay on CCRF-CEM, 4.5 µM (inactive); in the assay on NCI-H522, 15.3 µM (inactive); in the assay with HT-29, 84.9 µM (inactive); in the assay on RPMI-8226, 18.5 µM (inactive). Also, the GI50 in the assay with SK-MEL-28 is 61.1 µM (inactive); with K562 it was 15.3 µM (inactive); with HL-60 it was 14.1 µM (inactive); with OVCAR-4 it was > 100 µM (inactive); with KM12, 53.3 µM (inactive); in the assay with UO-31, 31.6 µM (inactive). Moreover, the GI50 in the assay on HOP-62 is > 100 µM (inactive); in the assay on ACHN, 85.7 µM (inactive); in the assay on SK-MEL-2 it was 18.2 µM (inactive); in the assay with SF-539, 22.8 µM (inactive).

Source of the values: ChEMBL document CHEMBL1201862, “PubChem BioAssay data set” (2004).
